The assay addresses T1, human mAChR M1 (Homo sapiens, UniProt P11229).
T1 sequence (P11229 1-460): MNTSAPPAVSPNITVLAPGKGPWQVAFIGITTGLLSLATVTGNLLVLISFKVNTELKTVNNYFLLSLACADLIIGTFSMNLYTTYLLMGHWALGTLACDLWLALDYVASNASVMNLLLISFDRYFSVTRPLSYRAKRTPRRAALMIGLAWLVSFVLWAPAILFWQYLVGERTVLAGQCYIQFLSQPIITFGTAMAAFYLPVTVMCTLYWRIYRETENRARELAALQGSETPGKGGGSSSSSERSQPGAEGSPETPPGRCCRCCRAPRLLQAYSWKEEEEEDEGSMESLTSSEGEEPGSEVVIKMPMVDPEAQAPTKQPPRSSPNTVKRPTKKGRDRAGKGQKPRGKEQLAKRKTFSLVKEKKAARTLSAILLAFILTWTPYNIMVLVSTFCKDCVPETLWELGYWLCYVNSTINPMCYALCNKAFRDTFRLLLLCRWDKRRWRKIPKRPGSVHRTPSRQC
Kind of assay: mAChR M1 cell-based functional assay: calcium mobilization, positive allosteric modulator mode (increase in EC20 acetylcholine response). Particulars: for Emax: read-out: Human M1 Emax (%). The essentials:
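Calcium-flux assay in CHO-K1 cells stably expressing human M1, loaded with Fluo-4 AM (50 min, 37 °C) and read at 1 Hz. Compound (11-point, 1:3 series) was added at 4 s, EC20 acetylcholine at 144 s and EC80 at 230 s. PAM activity is the concentration-dependent rise in the EC20 response, fitted with a four-parameter logistic.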

Setting [1] is: Table 2, human M1, read-out: Human M1 EC50.

Consider 29 compounds from US11111251B2, “Positive allosteric modulators of the muscarinic acetylcholine receptor M1” (Vanderbilt University, priority 2016, dated 2021).

Where two headings read alike, the source gives them in different places. Bounds are passed on as bounds.

The term EC50 denotes the concentration needed to bring the measured effect to its halfway point. As usually defined, the Emax is the size of the effect at its maximum, as opposed to the concentration needed. For the compound `O=C(NC1CC(F)C1)c1cc(Cc2ccc(-c3cncs3)cc2)c2sccc2n1` (stereo not drawn) [Compound 401, N-(3-fluorocyclobutyl)-7-[(4-thiazol-5-ylphenyl)methyl]thieno[3,2-b]pyridine-5-carboxamide], the 50% effective concentration (EC50) under setting [1] was determined as 4.57 µM. Moreover, the Emax (Table 2, human M1) amounted to 40.5%.

Consider `Cc1ncc(Cc2cc(C(=O)NC34CC5CC(CC(O)(C5)C3)C4)nc3ccsc23)s1` [Compound 141, N-(3-hydroxy-1-adamantyl)-7-[(2-methylthiazol-5-yl]methyl]thieno[3,2-b]pyridine-5-carboxamide], for which the concentration giving a half-maximal response (EC50) under setting [1] was more than 10 µM. For the setting “Table 2, human M1”, the Emax is 36.9%.

For the compound `Cc1nc(-c2ccc(Cc3cc(C(=O)N[C@H]4CCCOC4)nc4ccsc34)cc2)cs1` [Compound 189, 7-[[4-(2-methylthiazol-4-yl)phenyl]methyl]-N-[(3S)-tetrahydropyran-3-yl]thieno[3,2-b]pyridine-5-carboxamide], the EC50 under setting [1] amounted to 6.27 µM. Further, under “Table 2, human M1”, the Emax was determined as 72%.

Take `Cn1ccc2nc(C(=O)N[C@H]3CCOC3)cc(Cc3ccc(-c4cscn4)cc3)c21` [Compound 464, 1-methyl-N-[(3S)-tetrahydrofuran-3-yl]-7-[(4-thiazol-4-ylphenyl)methyl]pyrrolo[3,2-b]pyridine-5-carboxamide]: the concentration for a half-maximal effect (EC50) under setting [1] was found to be 1.87 µM. The maximal response (Emax) (Table 2, human M1) was 71.2%.

Take `Cc1nn(C)cc1-c1ccc(Cc2cc(C(=O)N[C@H]3CCOC[C@@H]3O)nc3ccsc23)cc1` [Compound 248, 7-[[4-(1,3-dimethylpyrazol-4-yl)phenyl]methyl]-N-[(3R,4S)-3-hydroxytetrahydropyran-4-yl]thieno[3,2-b]pyridine-5-carboxamide]: the EC50 under setting [1] came to 4.88 µM. Moreover, the maximum response (Emax) (Table 2, human M1) is 71.3%.

On to `Cc1ccc(Oc2cc(C(=O)NC(CO)c3ccccc3)nc3ccsc23)cn1` (stereo not drawn) [Compound 27, N-(2-hydroxy-1-phenyl-ethyl)-7-[(6-methyl-3-pyridyl)oxy]thieno[3,2-b]pyridine-5-carboxamide], for which the EC50 (Table 1, mAChR M1 cell-based functional assay, PAM mode, species not given, read-out: EC50) was more than 10 µM.

Take `CO[C@@H]1CCCC[C@H]1NC(=O)c1cc(Cc2ccc(-n3cccn3)cc2)c2scc(C)c2n1` [Compound 119, N-[(1R,2R)-2-methoxycyclohexyl]-3-methyl-7-[(4-pyrazol-1-ylphenyl)methyl]thieno[3,2-b]pyridine-5-carboxamide]: the EC50 under setting [1] came to 2.28 µM. For the same compound, the Emax (Table 2, human M1) was 83.3%.

Turning to `O=C(NC1CCC1)c1cc(Cc2ccc(-n3cccn3)cc2)c2sccc2n1` [Compound 436, N-cyclobutyl-7-[(4-pyrazol-1-ylphenyl)methyl]thieno[3,2-b]pyridine-5-carboxamide], the EC50 under setting [1] amounted to 1.5 µM. In addition, the maximal effect (Emax) (Table 2, human M1) is 69.1%.

For the compound `Cn1ncc2nc(C(=O)N[C@H]3CCOC[C@@H]3O)cc(Cc3ccc(-c4cscn4)cc3)c21` [Compound 493, N-[(3R,4S)-3-hydroxytetrahydropyran-4-yl]-1-methyl-7-[(4-thiazol-4-ylphenyl)-methyl]pyrazolo[4,3-b]pyridine-5-carboxamide], the EC50 under setting [1] amounted to 0.176 µM. In addition, under “Table 2, human M1”, the maximal response (Emax) amounted to 65.5%.

Take `Cn1ccc(-c2ccc(Cc3cc(C(=O)NC4CC(F)C4)nc4ccn(C)c34)cn2)n1` (stereo not drawn) [Compound 510, N-(3-fluorocyclobutyl)-1-methyl-7-[[6-(1-methylpyrazol-3-yl)-3-pyridyl]methyl]pyrrolo[3,2-b]pyridine-5-carboxamide;]: the concentration giving a half-maximal response (EC50) under setting [1] stood at 4.28 µM. Where the note is “Table 2, human M1”, the Emax came to 76.8%.

Turning to `Cc1ccc(Cc2cc(C(=O)NC34CC5CC(CC(O)(C5)C3)C4)nc3ccsc23)cn1` [Compound 63, N-(3-hydroxy-1-adamantyl)-7-[(6-methyl-3-pyridyl)methyl]thieno[3,2-b]pyridine-5-carboxamide], the EC50 under setting [1] was 3.99 µM. For the same compound, the maximal response (Emax) (Table 2, human M1) is 87%.

In the case of `Cc1nc(-c2ccc(Cc3cc(C(=O)N[C@@H]4CCOC[C@H]4O)nc4ccsc34)cc2)co1` [Compound 166, N-[(3S,4R)-3-hydroxytetrahydropyran-4-yl]-7-[[4-(2-methyloxazol-4-yl)phenyl]methyl]thieno[3,2-b]pyridine-5-carboxamide], the EC50 under setting [1] turned out to be 0.0168 µM. Also, where the note is “Table 2, human M1”, the Emax was 81.6%.

For the compound `Cc1csc2c(Cc3ccc(-n4cccn4)cc3)cc(C(=O)N[C@H]3CCOC3)nc12` [Compound 317, 3-methyl-7-[(4-pyrazol-1-ylphenyl)methyl]-N-[(3S)-tetrahydrofuran-3-yl]thieno[3,2-b]pyridine-5-carboxamide], the EC50 under setting [1] came to 1.68 µM. Also, the maximal effect (Emax) (Table 2, human M1) was 43.1%.

Take `O=C(N[C@H]1CCCCC[C@@H]1O)c1cc(Cc2ccc(-c3cscn3)cc2)c2sccc2n1` [Compound 219, N-[(1S,2S)-2-hydroxycycloheptyl]-7-[(4-thiazol-4-ylphenyl)methyl]thieno[3,2-b]pyridine-5-carboxamide]: the 50% effective concentration (EC50) under setting [1] was determined as 0.144 µM. In addition, for the setting “Table 2, human M1”, the maximal effect (Emax) amounted to 73%.

Take `Cn1cc(-c2ccc(Cc3cc(C(=O)N[C@H]4COCC[C@@H]4O)nc4ccsc34)c(F)c2)cn1` [Compound 53, 7-[[2-fluoro-4-(1-methylpyrazol-4-yl)phenyl]methyl]-N-[(3S,4S)-4-hydroxytetrahydropyran-3-yl]thieno[3,2-b]pyridine-5-carboxamide]: under setting [1], the EC50 was determined as 3.07 µM. Further, the maximal effect (Emax) (Table 2, human M1) was determined as 79%.

Turning to `Cn1ccc(-c2ccc(Cc3cc(C(=O)NC[C@@H]4CCOC4)nc4ccsc34)cn2)n1` [Compound 357], under setting [1], the concentration giving a half-maximal response (EC50) turned out to be 0.458 µM. Also, the Emax (Table 2, human M1) is 86.5%.

`Cc1ncc(Cc2cc(C(=O)NC3CCOCC3)nc3ccsc23)s1` [Compound 135, 7-[(2-methylthiazol-5-yl)methyl]-N-tetrahydropyran-4-yl-thieno[3,2-b]pyridine-5-carboxamide]: the 50% effective concentration (EC50) under setting [1] is more than 10 µM. Further, the Emax (Table 2, human M1) came to 60.9%.

With `Cc1ccc(Cc2cc(C(=O)Nc3c[nH]cn3)nc3ccsc23)cn1` [Compound 70, N-(1H-imidazol-4-yl)-7-[(6-methyl-3-pyridyl)methyl]thieno[3,2-b]pyridine-5-carboxamide], the EC50 under setting [1] is more than 10 µM. Further, the Emax (Table 2, human M1) was 62.4%.

As for `CO[C@@H]1CCCC[C@H]1NC(=O)c1cc(Cc2ccc(C(F)(F)F)nc2)c2sccc2n1` [Compound 93, N-[(1R,2R)-2-methoxycyclohexyl]-7-[[6-(trifluoromethyl)-3-pyridyl]methyl]thieno[3,2-b]pyridine-5-carboxamide], the concentration giving a half-maximal response (EC50) under setting [1] came to 6.72 µM. In addition, the Emax (Table 2, human M1) was found to be 70.3%.

`O=C(NC1CC2(COC2)C1)c1cc(Cc2ccc(-c3nccs3)cc2)c2sccc2n1` [Compound 333]: the EC50 under setting [1] came to 0.446 µM. The maximal response (Emax) (Table 2, human M1) was 84.7%.

In the case of `Cn1ncc2nc(C(=O)NC[C@H]3CCCO3)cc(Cc3ccc(-n4cccn4)cc3)c21` [Compound 502, 1-methyl-7-[(4-pyrazol-1-ylphenyl)methyl]-N-[[(2R)-tetrahydrofuran-2-yl]methyl]-pyrazolo[4,3-b]pyridine-5-carboxamide], under setting [1], the EC50 turned out to be 4.14 µM. Besides, the maximum response (Emax) (Table 2, human M1) amounted to 67.2%.

As for `Cn1cc(-c2ccc(Cc3cc(C(=O)N[C@H]4CCCC[C@@H]4O)nc4ccsc34)cn2)cn1` [Compound 224, N-[(1S,2S)-2-hydroxycyclohexyl]-7-[[6-(1-methylpyrazol-4-yl)-3-pyridyl]methyl]thieno[3,2-b]pyridine-5-carboxamide], the EC50 under setting [1] is 0.0134 µM. For the same compound, the Emax (Table 2, human M1) amounted to 71.2%.

As to `Cc1csc2c(Cc3ccc(-n4cccn4)cc3)cc(C(=O)NCC3CCOCC3)nc12` [Compound 318, 3-methyl-7-[(4-pyrazol-1-ylphenyl)methyl]-N-(tetrahydropyran-4-ylmethyl)thieno[3,2-b]pyridine-5-carboxamide], the EC50 under setting [1] amounted to 1.41 µM. For the same compound, the maximum response (Emax) (Table 2, human M1) amounted to 72.2%.

As to `Cc1ncc(Cc2cc(C(=O)N[C@@H]3CCCCC[C@H]3O)nc3ccsc23)cn1` [Compound 131, N-[(1R,2R)-2-hydroxycycloheptyl]-7-[(2-methylpyrimidin-5-yl)methyl]thieno[3,2-b]pyridine-5-carboxamide], under setting [1], the EC50 came out at 4.65 µM. In addition, the Emax (Table 2, human M1) turned out to be 83.4%.

For `Cn1ccc(-c2ccc(Cc3cc(C(=O)NC4CCOC(C)(C)C4)nc4ccn(C)c34)cn2)n1` (stereo not drawn) [Compound 504, N-(2,2-dimethyltetrahydropyran-4-yl)-1-methyl-7-[[6-(1-methylpyrazol-3-yl)-3-pyridyl]methyl]pyrrolo[3,2-b]pyridine-5-carboxamide;], under setting [1], the concentration for a half-maximal effect (EC50) was 1.35 µM. In addition, for the setting “Table 2, human M1”, the Emax came to 79.5%.

Turning to `Cn1ccc(-c2ccc(Cc3cc(C(=O)N[C@H]4CCCCC[C@@H]4O)nc4ccsc34)cn2)n1` [Compound 411], the EC50 under setting [1] stood at 0.077 µM. Also, the maximal response (Emax) (Table 2, human M1) worked out at 57.6%.

For `Cn1ccc(-c2ccc(Cc3cc(C(=O)N[C@@H]4CC[C@H]4O)nc4ccsc34)cn2)n1` [Compound 412], the concentration for a half-maximal effect (EC50) under setting [1] came to 0.222 µM. Also, the Emax (Table 2, human M1) stood at 69.1%.

`O=C(NC1CCOCC1)c1cc(Cc2ccc(-c3nccs3)cc2)c2sccc2n1` [Compound 296]: under setting [1], the EC50 amounted to 0.273 µM. Under “Table 2, human M1”, the Emax worked out at 79.9%.

Consider `O=C(NCC1CCCCO1)c1cc(Cc2ccc(-n3cccn3)cc2)c2sccc2n1` (stereo not drawn) [Compound 289, 7-[(4-pyrazol-1-ylphenyl)methyl]-N-(tetrahydropyran-2-ylmethyl)thieno[3,2-b]pyridine-5-carboxamide], for which, under setting [1], the concentration giving a half-maximal response (EC50) is 1.16 µM. The Emax (Table 2, human M1) was 80.7%.
